“And” between values parts separate entries of the source, which are not always exact repeats. Identical values can stand only once.
Experiments:
[1] = biological target: T1, Fibrinogen (Homo sapiens, UniProt P02671+P02675+P02679); assay: Fibrinogen, Multifibren U test; type: biochemical; details: for Fibrinogen, mean value: mean of 11 subjects
T1 construct: from tissue; host or cells: citrated whole blood of volunteers
T1 sequence (P02671 20-629 limits assumed): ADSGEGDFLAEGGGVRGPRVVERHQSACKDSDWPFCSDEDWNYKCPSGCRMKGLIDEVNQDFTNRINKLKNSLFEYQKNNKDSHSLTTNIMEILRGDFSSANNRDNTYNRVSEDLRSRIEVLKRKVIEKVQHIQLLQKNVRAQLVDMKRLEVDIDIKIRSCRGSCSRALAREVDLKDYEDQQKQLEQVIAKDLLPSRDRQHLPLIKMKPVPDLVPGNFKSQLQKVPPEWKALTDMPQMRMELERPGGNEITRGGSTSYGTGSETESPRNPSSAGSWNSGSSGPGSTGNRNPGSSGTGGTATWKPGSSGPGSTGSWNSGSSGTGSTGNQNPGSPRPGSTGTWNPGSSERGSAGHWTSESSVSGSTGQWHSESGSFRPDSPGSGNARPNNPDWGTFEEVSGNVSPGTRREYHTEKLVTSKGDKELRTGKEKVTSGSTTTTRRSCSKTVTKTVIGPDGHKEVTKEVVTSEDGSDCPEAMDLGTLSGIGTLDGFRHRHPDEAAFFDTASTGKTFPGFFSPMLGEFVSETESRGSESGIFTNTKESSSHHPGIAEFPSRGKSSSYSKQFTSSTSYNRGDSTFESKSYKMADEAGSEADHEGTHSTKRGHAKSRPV
T1 sequence (P02675 31-491): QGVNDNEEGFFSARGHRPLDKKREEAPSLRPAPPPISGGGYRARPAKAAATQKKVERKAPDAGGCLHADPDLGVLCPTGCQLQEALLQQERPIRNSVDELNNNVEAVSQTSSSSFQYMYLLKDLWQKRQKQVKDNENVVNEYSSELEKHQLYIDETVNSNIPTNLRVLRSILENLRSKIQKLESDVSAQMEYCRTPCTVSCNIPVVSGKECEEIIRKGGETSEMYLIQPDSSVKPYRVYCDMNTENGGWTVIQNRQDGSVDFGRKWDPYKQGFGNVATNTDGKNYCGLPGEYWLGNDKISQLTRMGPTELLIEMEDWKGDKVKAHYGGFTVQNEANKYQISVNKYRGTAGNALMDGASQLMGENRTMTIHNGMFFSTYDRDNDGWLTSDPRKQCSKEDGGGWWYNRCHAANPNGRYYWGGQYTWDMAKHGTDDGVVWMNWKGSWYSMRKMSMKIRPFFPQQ
T1 sequence (P02679 27-453): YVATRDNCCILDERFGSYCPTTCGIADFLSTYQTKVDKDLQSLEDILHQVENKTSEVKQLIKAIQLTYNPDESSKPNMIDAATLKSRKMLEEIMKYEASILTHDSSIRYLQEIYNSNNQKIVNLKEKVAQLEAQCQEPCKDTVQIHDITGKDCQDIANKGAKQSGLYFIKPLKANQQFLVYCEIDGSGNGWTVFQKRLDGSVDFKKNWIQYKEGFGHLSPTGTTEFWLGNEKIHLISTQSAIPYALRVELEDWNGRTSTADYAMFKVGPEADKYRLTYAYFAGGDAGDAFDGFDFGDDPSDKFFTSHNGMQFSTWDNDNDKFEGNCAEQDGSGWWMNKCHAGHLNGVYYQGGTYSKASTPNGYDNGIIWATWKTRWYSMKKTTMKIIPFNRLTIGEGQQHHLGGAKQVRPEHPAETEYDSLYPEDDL
Protocol: (§1) Whole blood was taken from a single volunteer and enriched with trisodium citrate (0.3 mL of a 0.106 molar solution per 3 mL whole blood) (S-Monovette®, Sarstedt, Nümbrecht, Germany). Portions of 1.8 mL citrate blood were mixed with 0.2 mL NCT in 0.9% saline. The following final (after dilution in blood) NCT concentrations were tested separately: 1% (55 mM); 0.5% (27.5 mM); 0.25% (13.75 mM); 0.1% (5.5 mM); 0.05% (2.75 mM); 0.025% (1.375 mM); and 0.01% (0.55 mM). A control without NCT was performed in parallel. The following commercial coagulation tests were performed according to the prescription of the manufacturer: prothrombin time (PT) was determined using Thromborel® S test (Dade Behring GmbH, Marburg, Germany), activated partial thromboplastin time (aPTT) was determined using Pathromtin* SL test (Dade Behring GmbH, Marburg, Germany); thrombin time (TT) was determined using BC Thrombin Reagent test (Dade Behring GmbH, Marburg, Germany); and fibrinogen was determined using Multifibren* U test (Dade Behring GmbH, Marburg, Germany).
(§2) Whole blood was taken from 11 volunteers and enriched with trisodium citrate (0.3 mL of a 0.106 molar solution per 3 mL whole blood) (S-Monovette®, Sarstedt, Nümbrecht, Germany). Commercial coagulation tests (as described in Example 6) were performed with the following samples: […]

[2] = test system: citrate blood; assay: Routine coagulation tests, overall anticoagulant effect; type: biochemical, human
Protocol: Whole blood was taken from volunteers and enriched with trisodium citrate (0.3 mL of a 0.106 molar solution per 3 mL whole blood) (S-Monovette®, Sarstedt, Nümbrecht, Germany). Routine coagulation tests were performed on the following samples:
The following commercial coagulation tests were performed according to the prescription of the manufacturer: prothrombin time (PT) was determined using Thromborel® S test (Dade Behring GmbH, Marburg, Germany); activated partial thromboplastin time (aPTT) was determined using Pathromtin* SL test (Dade Behring GmbH, Marburg, Germany); and thrombin time (TT) was determined using BC Thrombin Reagent test (Dade Behring GmbH, Marburg, Germany).
as §1, §2

SMILES: O=S(=O)(O)CCNCl [NCT, N-chlorotaurine]
- Fibrinogen ([1]; Example 6, single volunteer, 0.01% (0.55 mM) NCT final): 281.4
- Fibrinogen ([1]; Example 6, single volunteer, 0.025% (1.375 mM) NCT final): 199.4
- Fibrinogen ([1]; Example 6, single volunteer, 0.05% (2.75 mM) NCT final): not detectable
- Fibrinogen ([1]; Example 6, single volunteer, 0.1% (5.5 mM) NCT final): not detectable
- Fibrinogen ([1]; Example 6, single volunteer, 0.25% (13.75 mM) NCT final): not detectable
- Fibrinogen ([1]; Example 6, single volunteer, 0.5% (27.5 mM) NCT final): not detectable
- Fibrinogen ([1]; Example 6, single volunteer, 1% (55 mM) NCT final): not detectable
- Fibrinogen ([1]; Example 7, 0.01% NCT, individual subjects 1-11): 170 mg/dL and 112 mg/dL and 240 mg/dL and 87 mg/dL and 194 mg/dL and 178 mg/dL and 226 mg/dL and 237 mg/dL and 224 mg/dL and 230 mg/dL and 215 mg/dL
- Fibrinogen, mean value ([1]; Example 7, 0.01% NCT): 192.1 mg/dL
- Fibrinogen ([1]; Example 7, 0.025% NCT, individual subjects 1-11): 40 mg/dL
- Fibrinogen, mean value ([1]; Example 7, 0.025% NCT): 40.0 mg/dL
- effect on the anticoagulant activity of heparin ([2]; Example 5, 1% NCT final concentration): does not counteract the anticoagulant activity of heparin
- anticoagulant activity of NCT alone ([2]; Example 5, 1% NCT without heparin): has anticoagulant activity
- anticoagulant effect ([2]; NCT 0.55 mmol/L): significant anticoagulant effect
- anticoagulant effect ([2]; NCT 1.375 mmol/L): strong effect
